Measured values from patent US6063814A, “Phorbol esters as anti-neoplastic and white blood cell elevating agents” (priority 1997, dated 2000).
Where two headings read alike, the source gives them in different places.

Columns and labels:
[1] = format: in vivo, humans
Description: TPA solution in a sterile syringe was injected into 200 ml of saline and mixed well for i.v. infusion.
2. The Toxicity and Side Effects of Different TPA Doses Administered Clinically:
One mg TPA in solution was mixed well with 200 ml of saline for i.v. infusion which was completed in 1 h at the rate of 16 μg/min. […] The above symptoms could be alleviated by giving the patients glucocorticoids. […] The cardiac, hepatic, renal and pulmonary functions were all found to be normal.
0.5 mg of TPA in solution was mixed well with 200 ml of saline for i.v. infusion which was completed in 1 h at the rate of 8 μg/min. […] Difficulty in breathing was not observed. The cardiac, hepatic, renal and pulmonary functions were all normal.
0.25 mg of TPA in solution was mixed well with 200 ml of saline for i.v. infusion which was completed in 1 h at the rate of 4 μg/min. […] The cardiac, hepatic, renal and pulmonary functions were all normal.

HL-60 cells [2] = experiment: TPA + low doses of Ara-C, HL-60 differentiation; format: cell-based, human
Text: (2) TPA+Low Doses of Ara-C:

[3] = test system: Peripheral White Blood Cells (WBC) and Hemoglobin (Hb); experiment: Peripheral white blood cell and hemoglobin counts in S180 cell-injected mice; format: in vivo; details: for WBC count: control 13.6±1.8; for Hb: control 134±15
Description: Effect of TPA on the Peripheral White Blood Cells (WBC) and Hemoglobin (Hb) Counts in S180 Cell-Injected Mice:
S180 cells were injected into mice. On the third day, the mice were given TPA i.p. at 50, 100 or 200 μg/kg/d for 7 days. On the second day after the treatment was completed, blood samples were taken from the tails of the treated mice for WBC and Hb analyses.

B16 tumor cells = experiment: Tumor growth inhibition in mice injected with B16 tumor cells; format: in vivo, C57 mice; details: statistically different from control
Description: Effect of TPA in Mice Injected with B16 Tumor Cells:
Four groups of C57 mice were used in the experiment. Each group contained 7 mice and one group was untreated. Each C57 mouse was injected with 0.2 ml of supernatant of a 1:6 w/v homogenate of B16 cells at the under-arm position. On the third day, each treatment group was given TPA i.p. at 50, 100 or 200 μg/kg/d for 8 days.

[4] = test system: leukemia (bone marrow myeloblast and promyelocyte); experiment: Clinical treatment of leukemia patients with TPA; format: in vivo, humans
[5] = test system: human leukemia cell line HL-60; details: cited from earlier work
HL-60 cells [6] = experiment: Effect of TPA in a human promyelocytic leukemia cell line (HL-60); format: cell-based; details: 10, 20 or 100 ng/ml
Description: 1. Effect of TPA in a Human Promyelocytic Leukemia Cell Line (HL-60):
HL-60 cells at 2×10^6 cells/ml were treated with TPA. The final concentrations of TPA were 10, 20, or 100 ng/ml. The ethanol content was less than 0.01%.

[7] = test system: S180 (Sarcoma 180) tumor cells; experiment: Tumor growth inhibition in mice injected with S180 (Sarcoma 180) tumor cells; format: in vivo, Kwen-Ming mice
Description: Effect of TPA in Mice Injected With S180 (Sarcoma 180) Tumor Cells:
Eight groups of Kwen-Ming mice containing 7 mice per group were used in the following experiment. Two groups were untreated and six groups received the drug.
Each Kwen-Ming mouse was injected with 5×10^6 S180 cells at the under-arm position. After 24 or 72 h, the animals were given TPA i.p. or locally at the tumor site. The injected doses of TPA were 50, 100 and 200 μg/kg/d for 7 days. The animals were sacrificed 24 hrs after the final TPA treatment and the tumors were weighed to calculate the extent of the tumor growth inhibition.

[8] = test system: skin and the mucous membrane; details: cited from earlier work
cell cultures = details: Chemsyn product brochure; cited from earlier work
[9] = 0.25 mg/patient×4/week, i.v. infusion in 1 h
[10] = 0.5 mg/patient×2/week, i.v. infusion in 1 h
[11] = 1 mg/patient/week, i.v. infusion in 1 h
[12] = subject 8, AML-M3, retinoic acid failed
[13] = subject 9, secondary aplastic anemia, TPA 0.25 mg×2

With CCCCCCCCCCCCCC(=O)O[C@@H]1[C@@H](C)[C@@]2(O)[C@@H](C=C(CO)C[C@]3(O)C(=O)C(C)=C[C@@H]23)[C@@H]2C(C)(C)[C@]12OC(C)=O [TPA, Phorbol 12-Myristate-13-Acetate] the Hb in urine [1, 9] was “No Hb was detected in the urine”, the “cardiac, hepatic, renal and pulmonary functions” value (“cardiac, hepatic” for short) [1, 9] was “normal” and the chills and fever [1, 9] was “also observed, but to a much lesser extent than with the higher dosages”. For the same compound, the difficulty in breathing [1, 9] was “no patient suffered difficulty in breathing”, the Hb in urine [1, 10] was “Occasionally, Hb was detected in patients urine” and the “cardiac, hepatic” value [1, 10] was “normal”. For the same compound, the difficulty in breathing [1, 10] was “not observed”, the tolerability ([1]; 0.5 mg/patient×2/week, versus 1 mg) was “tolerated the lower dose more easily” and the Hb in urine [1, 11] was “Hb was detected in the urine”. For the same compound, the bleeding [1, 11] was “a minority of patients to bleed”, the “cardiac, hepatic” value [1, 11] was “normal” and the difficulty in breathing [1, 11] was “several patients suffered for a short period of time difficulty in breathing”. The duration of chills [1, 11] was “about 30 min”, the duration of fever [1, 11] was 3 to 5 h and the “fever, patients' temperature” value [1, 11] was 37.5-39.5 °C. The onset of chills [1, 11] was “One hour after TPA administration”, the perspiration [1, 11] was “light to heavy perspiration” and the “reversibility of side effects” value [1, 11] was “short lived and reversible”. The local irritation ([1]; TPA application) was “strong local irritation”, the HL-60 cell differentiation (HL-60 cells [2]; TPA alone, low dose 20 ng/ml) was “weak cell differentiation-inducing agent” and the HL-60 cell differentiation (HL-60 cells [2]; combination of TPA and Ara-C) was “induced the HL-60 cells to differentiate synergistically”. The WBC count ([3]; i.p. 50 μg/kg/d for 7 d) was 16.1±7.4 ×10^9 /L, the Hb ([3]; i.p. 50 μg/kg/d for 7 d) was 136 ± 11 g/L and the WBC count ([3]; i.p. 100 μg/kg/d for 7 d) was 18.7±3.0 ×10^9 /L. For the same compound, the Hb ([3]; i.p. 100 μg/kg/d for 7 d) was 149 ± 12 g/L, the WBC count ([3]; i.p. 200 μg/kg/d for 7 d) was 20.7±3.4 ×10^9 /L and the Hb ([3]; i.p. 200 μg/kg/d for 7 d) was 149 ± 10 g/L. The “effect on Hb levels” value ([3]; i.p. 50-200 μg/kg/d for 7 d) was “not greatly affected”, the “effect on peripheral WBC counts” value ([3]; i.p. 50-200 μg/kg/d for 7 d) was “could increase the peripheral WBC counts in mice in a dose-dependent manner” and the “rate of inhibition of tumor growth” value (B16 tumor cells; i.p. 50 μg/kg/d for 8 days) was 40.0%. The “rate of inhibition of tumor growth” value (B16 tumor cells; i.p. 100 μg/kg/d for 8 days) was 59.4%, the “rate of inhibition of tumor growth” value (B16 tumor cells; i.p. 200 μg/kg/d for 8 days) was 32.1% and the “Bone marrow myeloblast+promyelocyte after TPA treatment” value [4, 12] was 17%. The “Hb after TPA treatment” value [4, 12] was 66 g/L, the “WBC after TPA treatment” value [4, 13] was 1.9e+09 L⁻¹ and the treatment termination [4, 13] was “Due to severe anemia, the TPA treatment was terminated”. For the same compound, the “Bone marrow Myeloblast and promyelocyte, early in TPA treatment” value ([4]; subject 10, CML, 0.25 mg TPA once) was 9%, the “myeloblast, promyelocyte, myelocyte” value ([4]; subject 10, CML, TPA 0.25 mg once, fifth day) was “completely disappeared” and the “differentiation to nondividing macrophage-like cells” value ([5]; Weinberg, Science 213:655-657, 1981) was “causes differentiation of cells of the human leukemia cell line HL-60 to nondividing macrophage-like cells”. For the same compound, the induction of differentiation ([5]; stable human promyelocytic leukemic cell line HL-60) was “induces differentiation”, the differentiation to macrophages (HL-60 cells [6]; after 4-6 days) was “the majority of the cells were induced to differentiate to macrophages in a dose-dependent manner” and the “cell aggregation and attachment” value (HL-60 cells [6]; after 3 hours) was “cell aggregation and attachment to the dish were observed”. The “proliferation of HL-60 cells” value (HL-60 cells [6]; after 3 hours) was “stopped proliferating”, the morphological changes (HL-60 cells [6]; after 48 h) was “there were morphological changes” and the “tumor cell differentiation (pathological studies)” value ([7]; after TPA treatment) was “the tumor cells were differentiated”. The “inhibition of tumor growth” value ([7]; i.p. 50 μg/kg daily for 7 days) was 41.7%, the “inhibition of tumor growth” value ([7]; i.p. 100 μg/kg daily for 7 days) was 54.8% and the “inhibition of tumor growth” value ([7]; i.p. 200 μg/kg daily for 7 days) was 30.4%. The “inhibition of tumor growth” value ([7]; locally at tumor site, 50 μg/kg daily for 7 days) was 35.5%, the “inhibition of tumor growth” value ([7]; locally at tumor site, 100 μg/kg daily for 7 days) was 49.3% and the “inhibition of tumor growth” value ([7]; locally at tumor site, 200 μg/kg daily for 7 days) was 59.2%. The “harm on oral ingestion” value [8] was “harmful if ingested orally”, the irritant to skin [8] was “highly potent irritant to skin” and the mitogenic activity (cell cultures) was “powerful mitogen in cell cultures”.
